Details: mouse liver microsomes, NADPH, 1 μM compound, 1 h incubation

Compound: O=C(NCCCCN1CCN(c2cccc3ccccc23)CC1)c1cnc2ccccc2c1 [Compound 32, N-(4-(4-(Naphthalen-1-yl)piperazin-1-yl)butyl)quinoline-3-carboxamide]
- in vitro rate constant (k): −0.017
